This note sets out measurements from ChEMBL document CHEMBL5465560, “Selectivity Literature for EUbOPEN Chemogenomic Library” (2024).

The target in experiment [1] is T1, Serine/threonine-protein kinase STK11 (Homo sapiens) (UniProt Q15831).
T1 sequence (whole entry): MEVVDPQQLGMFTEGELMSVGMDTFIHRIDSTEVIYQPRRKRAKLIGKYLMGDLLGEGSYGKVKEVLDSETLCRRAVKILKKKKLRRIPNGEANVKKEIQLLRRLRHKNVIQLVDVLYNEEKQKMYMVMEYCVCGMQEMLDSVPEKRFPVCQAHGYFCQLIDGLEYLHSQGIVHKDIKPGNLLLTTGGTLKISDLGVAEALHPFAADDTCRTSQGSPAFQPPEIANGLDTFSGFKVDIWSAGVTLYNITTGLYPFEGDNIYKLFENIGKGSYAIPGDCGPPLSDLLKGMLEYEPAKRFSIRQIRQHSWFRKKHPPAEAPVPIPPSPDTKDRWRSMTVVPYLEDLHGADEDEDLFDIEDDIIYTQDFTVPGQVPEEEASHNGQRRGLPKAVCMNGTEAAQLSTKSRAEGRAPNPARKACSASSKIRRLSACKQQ
The following applies: at 10 µM.

The target in experiment [2] is Receptor-type tyrosine-protein kinase FLT3 (Homo sapiens) (UniProt P36888). The following applies: at 10 µM.
Sequence of Receptor-type tyrosine-protein kinase FLT3 (Homo sapiens) (P36888 whole entry): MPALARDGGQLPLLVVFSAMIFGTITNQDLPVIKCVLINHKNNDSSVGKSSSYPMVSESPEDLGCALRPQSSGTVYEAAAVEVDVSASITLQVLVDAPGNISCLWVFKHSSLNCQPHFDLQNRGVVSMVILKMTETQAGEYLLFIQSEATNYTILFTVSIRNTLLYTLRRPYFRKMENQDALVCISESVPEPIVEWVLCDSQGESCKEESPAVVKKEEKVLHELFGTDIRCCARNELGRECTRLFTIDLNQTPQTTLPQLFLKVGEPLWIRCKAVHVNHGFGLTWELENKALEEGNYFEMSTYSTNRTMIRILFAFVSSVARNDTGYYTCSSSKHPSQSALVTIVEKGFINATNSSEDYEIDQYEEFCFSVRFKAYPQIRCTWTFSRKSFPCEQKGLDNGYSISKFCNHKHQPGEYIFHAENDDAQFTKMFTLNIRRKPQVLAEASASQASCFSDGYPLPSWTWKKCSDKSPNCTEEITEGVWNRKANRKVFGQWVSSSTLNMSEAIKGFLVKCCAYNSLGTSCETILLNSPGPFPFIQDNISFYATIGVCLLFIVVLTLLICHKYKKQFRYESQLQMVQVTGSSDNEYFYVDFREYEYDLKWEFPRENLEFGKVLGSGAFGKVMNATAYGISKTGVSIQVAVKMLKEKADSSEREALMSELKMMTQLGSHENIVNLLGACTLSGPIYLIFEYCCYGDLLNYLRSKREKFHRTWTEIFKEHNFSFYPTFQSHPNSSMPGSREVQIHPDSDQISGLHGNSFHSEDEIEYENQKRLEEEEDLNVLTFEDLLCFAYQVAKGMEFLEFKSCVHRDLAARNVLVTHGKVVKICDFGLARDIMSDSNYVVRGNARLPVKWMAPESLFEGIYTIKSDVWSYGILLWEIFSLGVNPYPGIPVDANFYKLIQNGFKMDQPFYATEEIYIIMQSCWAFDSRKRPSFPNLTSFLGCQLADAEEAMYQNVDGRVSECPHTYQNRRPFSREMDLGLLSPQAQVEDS
For experiment [3], the target named is T2, Inhibitor of nuclear factor kappa-B kinase subunit epsilon (Homo sapiens) (UniProt Q14164).
T2 sequence (whole entry): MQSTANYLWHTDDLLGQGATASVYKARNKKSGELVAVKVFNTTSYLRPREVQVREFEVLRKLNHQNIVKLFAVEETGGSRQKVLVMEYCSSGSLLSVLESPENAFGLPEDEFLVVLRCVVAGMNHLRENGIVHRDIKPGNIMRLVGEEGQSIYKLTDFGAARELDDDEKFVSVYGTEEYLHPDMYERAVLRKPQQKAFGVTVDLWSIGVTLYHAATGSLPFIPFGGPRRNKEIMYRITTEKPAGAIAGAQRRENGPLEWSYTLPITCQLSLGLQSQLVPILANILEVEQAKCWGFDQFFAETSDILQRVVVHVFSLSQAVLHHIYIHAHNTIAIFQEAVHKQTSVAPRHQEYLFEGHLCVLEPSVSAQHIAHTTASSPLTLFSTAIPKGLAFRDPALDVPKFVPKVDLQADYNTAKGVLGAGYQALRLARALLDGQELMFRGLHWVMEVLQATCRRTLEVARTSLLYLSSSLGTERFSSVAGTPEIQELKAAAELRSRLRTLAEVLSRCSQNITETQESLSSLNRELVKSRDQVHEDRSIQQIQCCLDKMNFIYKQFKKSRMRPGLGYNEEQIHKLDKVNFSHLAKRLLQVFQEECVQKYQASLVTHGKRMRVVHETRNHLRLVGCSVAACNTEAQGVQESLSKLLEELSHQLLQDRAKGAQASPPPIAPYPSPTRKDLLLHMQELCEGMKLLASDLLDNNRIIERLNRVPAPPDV
In words: Selectivity interaction (KinomeScan (DiscoverX)) EUB0001079a IKBKE. As to conditions: at 1 µM.

For experiment [4], the target named is Serine/threonine-protein kinase Nek6 (Homo sapiens) (UniProt Q9HC98). The experiment is described as follows: Selectivity interaction (KinomeScan (DiscoverX)) EUB0000695a NEK6. As to conditions: at 100 nM.
Sequence of Serine/threonine-protein kinase Nek6 (Homo sapiens) (Q9HC98 whole entry): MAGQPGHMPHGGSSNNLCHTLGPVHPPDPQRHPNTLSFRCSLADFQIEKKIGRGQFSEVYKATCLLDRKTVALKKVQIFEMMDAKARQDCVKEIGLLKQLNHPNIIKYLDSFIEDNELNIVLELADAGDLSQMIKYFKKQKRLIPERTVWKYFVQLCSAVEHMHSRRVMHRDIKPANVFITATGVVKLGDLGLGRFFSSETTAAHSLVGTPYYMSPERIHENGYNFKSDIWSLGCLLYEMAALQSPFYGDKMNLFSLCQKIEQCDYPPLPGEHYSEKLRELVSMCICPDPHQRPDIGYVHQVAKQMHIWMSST
Experiment [5] has as its target Dual specificity tyrosine-phosphorylation-regulated kinase 1A (Homo sapiens, UniProt Q13627). The experiment is described as follows: Selectivity interaction (KinomeScan (DiscoverX)) EUB0000607a DYRK1A. The following applies: at 10 µM.
For experiment [6], the system named is Serine/threonine-protein kinase B-raf (Homo sapiens), P15056 [V600E]. In words: (§1) Selectivity interaction (KinomeScan (DiscoverX)) EUB0000229b BRAF. As to conditions: at 1 µM.
Sequence of Serine/threonine-protein kinase B-raf (Homo sapiens), P15056 [V600E] (P15056 whole entry V600E): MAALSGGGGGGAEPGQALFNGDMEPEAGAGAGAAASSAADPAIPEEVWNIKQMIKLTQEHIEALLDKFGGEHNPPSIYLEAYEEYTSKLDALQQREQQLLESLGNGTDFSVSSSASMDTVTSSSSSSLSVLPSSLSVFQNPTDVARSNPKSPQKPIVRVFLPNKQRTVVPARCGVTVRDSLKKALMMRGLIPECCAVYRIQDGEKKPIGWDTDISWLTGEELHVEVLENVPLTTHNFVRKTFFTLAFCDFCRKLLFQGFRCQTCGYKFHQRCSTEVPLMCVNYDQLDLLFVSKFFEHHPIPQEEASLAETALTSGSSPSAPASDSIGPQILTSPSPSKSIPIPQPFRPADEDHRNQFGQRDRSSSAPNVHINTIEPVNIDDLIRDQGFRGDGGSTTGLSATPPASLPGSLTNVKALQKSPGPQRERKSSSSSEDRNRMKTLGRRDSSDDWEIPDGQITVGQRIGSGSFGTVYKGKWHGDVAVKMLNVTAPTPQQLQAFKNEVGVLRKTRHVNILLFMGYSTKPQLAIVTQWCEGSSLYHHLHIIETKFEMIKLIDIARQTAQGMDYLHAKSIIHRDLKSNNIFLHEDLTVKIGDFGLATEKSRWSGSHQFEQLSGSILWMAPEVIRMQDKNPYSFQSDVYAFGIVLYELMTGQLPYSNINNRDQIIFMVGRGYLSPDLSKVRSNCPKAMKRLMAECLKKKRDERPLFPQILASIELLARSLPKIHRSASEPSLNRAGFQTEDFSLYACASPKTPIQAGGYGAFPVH
Experiment [7] has as its target Serine/threonine-protein kinase B-raf (Homo sapiens) (UniProt P15056). The experiment is described as §1. The following applies: at 10 µM.
Experiment [8] concerns the target T3, Serine/threonine-protein kinase tousled-like 1 (Homo sapiens) (UniProt Q9UKI8).
T3 sequence (whole entry): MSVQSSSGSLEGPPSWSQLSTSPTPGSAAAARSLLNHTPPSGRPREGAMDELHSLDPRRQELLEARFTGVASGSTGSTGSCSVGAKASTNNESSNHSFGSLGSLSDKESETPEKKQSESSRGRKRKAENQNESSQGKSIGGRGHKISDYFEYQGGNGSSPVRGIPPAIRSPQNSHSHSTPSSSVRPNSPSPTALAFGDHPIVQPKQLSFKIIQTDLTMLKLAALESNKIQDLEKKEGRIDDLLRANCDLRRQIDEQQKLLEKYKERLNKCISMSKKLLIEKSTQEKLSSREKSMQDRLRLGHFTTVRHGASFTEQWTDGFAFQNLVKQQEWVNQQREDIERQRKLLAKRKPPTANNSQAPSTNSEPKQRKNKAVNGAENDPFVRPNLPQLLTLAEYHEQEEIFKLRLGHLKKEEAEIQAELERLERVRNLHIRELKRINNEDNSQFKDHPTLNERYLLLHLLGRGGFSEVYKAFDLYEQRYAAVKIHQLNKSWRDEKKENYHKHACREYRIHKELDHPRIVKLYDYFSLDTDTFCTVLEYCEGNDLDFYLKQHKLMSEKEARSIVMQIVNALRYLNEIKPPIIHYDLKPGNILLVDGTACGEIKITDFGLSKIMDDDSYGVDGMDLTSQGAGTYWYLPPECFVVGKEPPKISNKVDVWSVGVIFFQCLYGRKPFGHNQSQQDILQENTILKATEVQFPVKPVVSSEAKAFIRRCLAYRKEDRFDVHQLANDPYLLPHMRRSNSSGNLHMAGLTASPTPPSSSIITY
As to conditions: at 10 µM.

In experiment [9] the target is Tyrosine-protein kinase Lyn (Homo sapiens, UniProt P07948). In words: Selectivity interaction (KinomeScan (DiscoverX)) EUB0000618a LYN. As to conditions: at 10 µM.
Sequence of Tyrosine-protein kinase Lyn (P07948 2-512 limits assumed): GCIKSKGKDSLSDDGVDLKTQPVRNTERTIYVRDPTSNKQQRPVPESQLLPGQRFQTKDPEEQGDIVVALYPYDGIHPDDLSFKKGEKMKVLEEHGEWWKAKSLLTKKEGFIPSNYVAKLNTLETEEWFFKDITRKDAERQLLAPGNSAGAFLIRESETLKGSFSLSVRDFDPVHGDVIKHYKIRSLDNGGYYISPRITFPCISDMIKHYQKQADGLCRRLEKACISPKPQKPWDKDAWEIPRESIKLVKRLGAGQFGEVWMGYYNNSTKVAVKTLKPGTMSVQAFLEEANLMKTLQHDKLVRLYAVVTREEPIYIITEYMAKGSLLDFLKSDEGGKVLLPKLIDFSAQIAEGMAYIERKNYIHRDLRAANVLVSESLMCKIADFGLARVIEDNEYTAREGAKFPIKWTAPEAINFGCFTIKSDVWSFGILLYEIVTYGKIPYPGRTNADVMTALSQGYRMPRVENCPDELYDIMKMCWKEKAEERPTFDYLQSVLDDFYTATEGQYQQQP
In experiment [10] the target is T4, Mitogen-activated protein kinase kinase kinase 2 (Homo sapiens) (UniProt Q9Y2U5).
T4 sequence (whole entry): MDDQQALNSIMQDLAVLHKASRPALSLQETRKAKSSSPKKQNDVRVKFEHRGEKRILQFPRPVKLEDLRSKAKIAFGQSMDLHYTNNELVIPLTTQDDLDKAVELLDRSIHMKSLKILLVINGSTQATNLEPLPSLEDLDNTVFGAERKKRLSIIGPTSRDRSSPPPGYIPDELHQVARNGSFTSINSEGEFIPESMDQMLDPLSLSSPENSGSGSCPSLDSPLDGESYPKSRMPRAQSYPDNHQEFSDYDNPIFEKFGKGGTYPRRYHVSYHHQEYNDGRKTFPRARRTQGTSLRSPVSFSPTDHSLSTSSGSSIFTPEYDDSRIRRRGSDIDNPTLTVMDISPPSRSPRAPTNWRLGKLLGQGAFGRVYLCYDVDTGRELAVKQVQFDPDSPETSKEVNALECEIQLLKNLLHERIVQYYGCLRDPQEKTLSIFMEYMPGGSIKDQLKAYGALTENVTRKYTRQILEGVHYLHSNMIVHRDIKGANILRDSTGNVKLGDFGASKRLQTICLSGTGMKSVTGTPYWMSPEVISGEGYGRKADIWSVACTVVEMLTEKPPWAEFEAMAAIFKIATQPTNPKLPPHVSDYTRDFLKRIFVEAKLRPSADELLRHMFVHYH
The experiment is described as follows: Selectivity interaction (KinomeScan (DiscoverX)) EUB0000618a MAP3K2. The following applies: at 10 µM.

Sequence of Serine/threonine-protein kinase B-raf (Homo sapiens) (P15056 whole entry): as the sequence (P15056 whole entry V600E) above, with E600V counted along it

As for `CCN(CC)CCCCNc1ncc2cc(-c3cc(OC)cc(OC)c3)c(NC(=O)NC(C)(C)C)nc2n1`, the % of control in experiment [1] and in experiment [2] was 100% throughout.
Take `Nc1cnc(N2CCc3cc(S(=O)(=O)Nc4c(F)cc(Cl)cc4F)cc(N4CCCC4=O)c32)nc1` [TP-020n]: the % of control in experiment [3] came to 95%.
In turn, `Cc1cc(F)c(C(=O)Nc2cccc(-c3nncn3C(C)C)n2)cc1-n1cnc(C2CC2)c1` registered a % of control in [4] of 100%.
Consider `CNC(=O)Nc1ccc(-c2nc(N3CC4CCC(C3)O4)c3cnn(C4CCC5(CC4)OCCO5)c3n2)cc1`, for which the % of control in experiment [5] turned out to be 100%.
`COc1cc(N(C)c2ccnc3ccc(C(F)(F)F)cc23)cc(OC)c1OC`: the values for the % binding in experiment [6] and in [7] were 78% and 71%, respectively.
`COCC(=O)NC/C=C/c1ccc2ncnc(Nc3ccc(Oc4ccc(C)nc4)c(C)c3)c2c1` [CP-724714] gave a % of control in experiment [8] of 79%.
Take `O[C@H]1CC[C@H](Nc2ncc3nc(Nc4c(F)cc(F)cc4F)n([C@H]4CCOC4)c3n2)CC1`: the results for the % of control in [9] and in experiment [10] were 98% and 82%, respectively.
